Data taken from patent publication US20050209248A1, “Plymorphic forms of phenyl oxazolidinone derivatives” (priority 2002, published 2005).
≈ marks a conversion by molar mass, not a printed value. Where two headings read alike, the source gives them in different places.

Tests used:
anaerobic bacteria = assay: NCCLS agar dilution MIC, anaerobic bacteria (summary); type: cell-based; conditions: anaerobes, Wilkins Chalgren Agar, 48 hour anaerobic incubation; for MIC Range: in µg/mL
Fusobacterium necrogenes = assay: Agar dilution MIC; type: cell-based; conditions: Fusobacterium necrogenes isolate
[1] = tested on: Mycobacterium tuberculosis; assay: Agar dilution method for M. tuberculosis (Middlebrook 7H10); type: cell-based; conditions: 504 h; for MIC90 / MIC: 21 days at 37° C.; for MIC: read-out: G.M. (MIC)
[2] = tested on: Mycobacterium avium intracellulare; assay: Agar dilution method (Middlebrook 7H10); type: cell-based; conditions: 504 h, 21 days at 37° C.; for MIC: read-out: G.M. (MIC)
Prevotella bivia = assay: Agar dilution MIC; type: cell-based; conditions: Prevotella bivia isolate
[3] = tested on: Porphyromonas asaccharolytica; assay: Agar dilution MIC; type: cell-based; conditions: Porphyromonas asaccharolytica isolate
Porphyromonas gingivalis = assay: Agar dilution MIC; type: cell-based; conditions: Porphyromonas gingivalis isolate
MRSE 879 = assay: Broth MIC; type: cell-based; conditions: for MIC: Staphylococcus epidermidis, read-out: broth MIC
Source text: (§1) The change in MIC in broth and on sintered glass adherent bacteria is presented in Graph E. [drawing]

[4] = tested on: MRSE 879 adherent bacteria; assay: Sintered glass adherent bacteria model; type: cell-based; conditions: MRSE 879, sintered glass adherent
Source text: (§2) Inhibition of slime production • 2. Activity against glass-adherent bacteria.
as §1

[5] = in vivo; cited from earlier work
[6] = tested on: MRSA 1029/99 and MRSE 879/247; assay: Inhibition of biofilm (slime) production, safranin staining; type: cell-based; conditions: trypticase soy broth with 2% glucose, overnight 37° C., Graphs A to D
Procedure: as §2
To study the effect of polymorphic ‘Form A’ on the inhibition of biofilm production, the following study was carried out as set forth in Blake et al. J. Clinical Microbiol. 2001; 39:544-550; and Polonio et al. Chemother. 2001; 45:3262-3266. […] Bacterial suspensions (in triplicate) were exposed a doubling dilution of antibiotics and incubated overnight at 37° C. with constant shaking (100 rpm). The next day, after aspirating the medium, the biofilm was stained with safranin (0.1%) for 1 hour at room temperature, washed with distilled water, tapped dry and stain-extracted into 200 μl of 0.2M NaoH and the OD measured at 544 nm.

Clostridium perfringens = type: cell-based

Compound	Geometric Mean (MIC) (anaerobic bacteria)	MIC50 (anaerobic bacteria)	MIC90 (anaerobic bacteria)	MIC Range (anaerobic bacteria)	MIC (Fusobacterium necrogenes)	MIC50 [1]	MIC90 [1]	MIC [1]	MIC50 [2]	MIC90 [2]	MIC [2]	MIC (Prevotella bivia)	MIC [3]	MIC (Porphyromonas gingivalis)	also measured
CC1(C)S[C@@H]2[C@H](NC(=O)[C@H](N)c3ccc(O)cc3)C(=O)N2[C@H]1C(=O)O [Amox]	1.37 µg/mL	1 µg/mL (≈ 2.74 µM)	256 µg/mL (≈ 701 µM)	0.062-256	0.5 µg/mL (≈ 1.37 µM)	–	–	–	–	–	–	–	–	–	–
CC[C@H]1OC(=O)[C@H](C)[C@@H](O[C@H]2C[C@@](C)(OC)[C@@H](O)[C@H](C)O2)[C@H](C)[C@@H](O[C@@H]2O[C@H](C)C[C@H](N(C)C)[C@H]2O)[C@](C)(OC)C[C@@H](C)C(=O)[C@H](C)[C@@H](O)[C@]1(C)O [Clarithromycin]	–	–	–	–	–	16 µg/mL (≈ 21.4 µM)	32 µg/mL (≈ 42.8 µM)	12.7 µg/mL (≈ 17 µM)	1 µg/mL (≈ 1.34 µM)	4 µg/mL (≈ 5.35 µM)	1.55 µg/mL (≈ 2.08 µM)	–	–	–	–
CCC[C@@H]1C[C@@H](C(=O)N[C@@H]([C@H]2O[C@H](SC)[C@H](O)[C@@H](O)[C@H]2O)[C@H](C)Cl)N(C)C1 [Clindamycin]	0.208 µg/mL	0.125 µg/mL (≈ 0.294 µM)	8 µg/mL (≈ 18.8 µM)	0.008-64	0.03 µg/mL (≈ 0.0706 µM)	–	–	–	–	–	–	> 32 µg/mL	≤ 0.016 µg/mL	≤ 0.016 µg/mL	–
COc1c(N2CCNC(C)C2)c(F)cc2c(=O)c(C(=O)O)cn(C3CC3)c12 (stereo not shown) [Gatifloxacin]	0.659 µg/mL	0.5 µg/mL (≈ 1.33 µM)	2 µg/mL (≈ 5.33 µM)	0.06-32	0.5 µg/mL (≈ 1.33 µM)	–	–	–	–	–	–	2 µg/mL (≈ 5.33 µM)	0.25 µg/mL (≈ 0.666 µM)	0.06 µg/mL (≈ 0.16 µM)	–
C[C@@H](O)[C@H]1C(=O)N2C(C(=O)O)=C(SCCN=CN)C[C@H]12 [Imipenem]	0.084 µg/mL	0.064 µg/mL (≈ 0.214 µM)	1 µg/mL (≈ 3.34 µM)	0.008-4	0.25 µg/mL (≈ 0.835 µM)	–	–	–	–	–	–	0.03 µg/mL (≈ 0.1 µM)	0.03 µg/mL (≈ 0.1 µM)	≤ 0.016 µg/mL	–
NNC(=O)c1ccncc1 [Isoniazid]	–	–	–	–	–	8 µg/mL (≈ 58.3 µM)	64 µg/mL (≈ 467 µM)	3.17 µg/mL (≈ 23.1 µM)	32 µg/mL (≈ 233 µM)	64 µg/mL (≈ 467 µM)	18.1 µg/mL (≈ 132 µM)	–	–	–	–
CC(=O)NC[C@H]1CN(c2ccc(N3CCOCC3)c(F)c2)C(=O)O1 [Linezolid]	1.13 µg/mL	1 µg/mL (≈ 2.96 µM)	4 µg/mL (≈ 11.9 µM)	0.25-4	0.5 µg/mL (≈ 1.48 µM)	8 µg/mL (≈ 23.7 µM)	64 µg/mL (≈ 190 µM)	8 µg/mL (≈ 23.7 µM)	16 µg/mL (≈ 47.4 µM)	64 µg/mL (≈ 190 µM)	20.6 µg/mL (≈ 61 µM)	1 µg/mL (≈ 2.96 µM)	1 µg/mL (≈ 2.96 µM)	1 µg/mL (≈ 2.96 µM)	MIC (MRSE 879; MRSE 879, broth): 2 µg/mL (≈ 5.93 µM); concentration which would kill adherent bacteria [4]: 32 µg/mL; Cmax [5]: 12 to 16 µg/mL
Cc1ncc([N+](=O)[O-])n1CCO [Metronidazole]	0.48 µg/mL	0.5 µg/mL (≈ 2.92 µM)	2 µg/mL (≈ 11.7 µM)	0.062-32	0.25 µg/mL (≈ 1.46 µM)	–	–	–	–	–	–	1 µg/mL (≈ 5.84 µM)	–	–	–
COc1c(N2C[C@@H]3CCCN[C@@H]3C2)c(F)cc2c(=O)c(C(=O)O)cn(C3CC3)c12 [Moxifloxacin]	–	–	–	–	1 µg/mL (≈ 2.49 µM)	–	–	–	–	–	–	–	0.5 µg/mL (≈ 1.25 µM)	0.03 µg/mL (≈ 0.0747 µM)	–
CC(=O)NC[C@H]1CN(c2ccc(N3CCN(Cc4ccc([N+](=O)[O-])o4)CC3)c(F)c2)C(=O)O1.Cl [Polymorphic ‘Form A’]	0.037 µg/mL	0.032 µg/mL	0.25 µg/mL	0.004-1	≤ 0.008 µg/mL	4 µg/mL	64 µg/mL	5.44 µg/mL	8 µg/mL	32 µg/mL	8.52 µg/mL	0.125 µg/mL	≤ 0.008 µg/mL	≤ 0.008 µg/mL	Inhibition of Biofilm formation [6]: occurs at a lower concentration; MIC (MRSE 879; MRSE 879, broth): 0.5 µg/mL; concentration which would kill adherent bacteria [4]: 2 µg/mL
CO[C@H]1/C=C/O[C@@]2(C)Oc3c(C)c(O)c4c(O)c(c(/C=N/N5CCN(C)CC5)c(O)c4c3C2=O)NC(=O)/C(C)=C\C=C\[C@H](C)[C@H](O)[C@@H](C)[C@@H](O)[C@@H](C)[C@H](OC(C)=O)[C@@H]1C [Rifampicin]	–	–	–	–	–	64 µg/mL (≈ 77.8 µM)	64 µg/mL (≈ 77.8 µM)	6.35 µg/mL (≈ 7.72 µM)	1 µg/mL (≈ 1.22 µM)	32 µg/mL (≈ 38.9 µM)	2 µg/mL (≈ 2.43 µM)	–	–	–	–
C[C@@H]1CN(c2c(F)c(N)c3c(=O)c(C(=O)O)cn(C4CC4)c3c2F)C[C@H](C)N1 [Sparfloxacin]	–	–	–	–	–	1 µg/mL (≈ 2.55 µM)	2 µg/mL (≈ 5.1 µM)	0.53 µg/mL (≈ 1.35 µM)	4 µg/mL (≈ 10.2 µM)	8 µg/mL (≈ 20.4 µM)	3.53 µg/mL (≈ 8.99 µM)	–	–	–	–
CN[C@H](CC(C)C)C(=O)N[C@H]1C(=O)N[C@@H](CC(N)=O)C(=O)N[C@H]2C(=O)N[C@H]3C(=O)N[C@H](C(=O)N[C@H](C(=O)O)c4cc(O)cc(O)c4-c4cc3ccc4O)[C@H](O)c3ccc(c(Cl)c3)Oc3cc2cc(c3O[C@@H]2O[C@H](CO)[C@@H](O)[C@H](O)[C@H]2O[C@H]2C[C@](C)(N)[C@H](O)[C@H](C)O2)Oc2ccc(cc2Cl)[C@H]1O [Vancomycin]	9.31 µg/mL	32 µg/mL (≈ 22.1 µM)	32 µg/mL (≈ 22.1 µM)	0.5-32	> 16 µg/mL	–	–	–	–	–	–	> 16 µg/mL	2 µg/mL (≈ 1.38 µM)	8 µg/mL (≈ 5.52 µM)	MIC (Clostridium perfringens): 0.5 µg/mL (≈ 0.345 µM); MIC (MRSE 879; MRSE): 1 µg/mL (≈ 0.69 µM); concentration which would kill adherent bacteria [4]: 8 µg/mL
Amox + clav	0.423 µg/mL	0.25 µg/mL	8 µg/mL	0.062-32	0.5 µg/mL	–	–	–	–	–	–	≤ 0.125 µg/mL	≤ 0.125 µg/mL	≤ 0.125 µg/mL	–
Synercid	1.61 µg/mL	1 µg/mL	16 µg/mL	0.062-16	0.25 µg/mL	–	–	–	–	–	–	2 µg/mL	≤ 0.125 µg/mL	0.25 µg/mL	broth MIC (MRSE 879; MRSE 879, broth): 0.5 µg/mL; concentration which would kill adherent bacteria [4]: 2 µg/mL
Teicoplanin	2.04 µg/mL	2 µg/mL	32 µg/mL	0.03-32	> 16 µg/mL	–	–	–	–	–	–	1 µg/mL	0.125 µg/mL	≤ 0.06 µg/mL	–
